Measured values published in the supplement of paper PMC8671470.
± gives the standard deviation of the averaged measurements.

Columns and labels:
Details in all cases: 72 h
[1] = test system: BV-173
Procedure, shortened: (§1)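 The IC50 was read from log-logistic dose–response fits. Fifteen myeloid leukaemia lines were exposed for 72 h at 37 °C with 5% CO2 to five tenfold doses from 1 to 10,000 nM in duplicate. ATP luminescence, normalised to vehicle and to a 10 µM positive control, was fitted with four parameters.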

[2] = test system: HEL
Procedure, shortened: as §1

[3] = test system: HL-60
Procedure, shortened: as §1

[4] = test system: K-562
Procedure, shortened: as §1

[5] = test system: KCL-22
Procedure, shortened: as §1

[6] = test system: KG-1
Procedure, shortened: as §1

[7] = test system: KU-812
Procedure, shortened: as §1

[8] = test system: LAMA-84
Procedure, shortened: as §1

[9] = test system: ML-2
Procedure, shortened: as §1

[10] = test system: MOLM-13
Procedure, shortened: as §1

[11] = test system: MV4-11
Procedure, shortened: as §1

[12] = test system: Mono-Mac-6
Procedure, shortened: as §1

[13] = test system: NOMO-1
Procedure, shortened: as §1

[14] = test system: SHI-1
Procedure, shortened: as §1

[15] = test system: THP-1
Procedure, shortened: as §1

[16] = test system: HL-60; experiment: cell viability (% survival relative to DMSO control); higher = less cytotoxic
Procedure, shortened: (§2)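 For each screen, HL-60 cells in RPMI 1640 with 10% FBS carried either DMSO or 100 nM of one of three metabolic inhibitors while the full library was applied at five tenfold concentrations, 1–10,000 nM, in duplicate. Plates were 384-well and were kept 72 h at 37 °C, 5% CO2. Viability, measured by CellTiter-Glo, was normalised to wells with DMSO and with 10 μM proteasome inhibitor. Where area under the curve appears, it was fitted by four-parameter log-logistic models in drc and PharmacoGx.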

[17] = test system: K-562; experiment: cell viability (% survival relative to DMSO control, bortezomib = 0%); higher = less cytotoxic
Procedure, shortened: (§3)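 After 72 h at 37 °C with 5% CO2, cell viability in 384-well plates was measured by CellTiter-Glo luminescence. The plates held compounds pre-printed at 1, 10, 100, 1000 or 10000 nM in duplicate, and cells from 10 AML and 5 CML lines seeded at densities titrated to linear growth. Percent survival is the duplicate mean, normalised to vehicle as 100% and a 10 µM positive control as 0%.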

[18] = test system: KCL-22; experiment: as above
Procedure, shortened: as §3

[19] = test system: KG-1; experiment: as above
Procedure, shortened: as §3

[20] = test system: KU-812; experiment: as above
Procedure, shortened: as §3

[21] = test system: LAMA-84; experiment: as above
Procedure, shortened: as §3

[22] = test system: ML-2; experiment: as above
Procedure, shortened: as §3

[23] = test system: MOLM-13; experiment: as above
Procedure, shortened: as §3

[24] = test system: MV4-11; experiment: as above
Procedure, shortened: as §3

[25] = test system: NOMO-1; experiment: as above
Procedure, shortened: as §3

[26] = test system: SHI-1; experiment: as above
Procedure, shortened: as §3

[27] = test system: THP-1; experiment: as above
Procedure, shortened: as §3

[28] = test system: HL-60; experiment: area under dose-response curve (viability, 1 nM-10 uM) (fraction (0-1)); higher = more sensitive
Procedure, shortened: as §2

Structure (SMILES): Cc1[nH]n(-c2ccccc2)c(=O)c1C1(C(F)(F)F)C(=O)N(c2ccccc2)C2=C1C(=O)CC(C)(C)C2 (centres undefined)
- IC50 (cell viability) [1]: > 10 µM
- IC50 (cell viability) [2]: > 10 µM
- IC50 (cell viability) [3]: > 10 µM
- IC50 (cell viability) [4]: > 10 µM
- IC50 (cell viability) [5]: > 10 µM
- IC50 (cell viability) [6]: > 10 µM
- IC50 (cell viability) [7]: > 10 µM
- IC50 (cell viability) [8]: > 10 µM
- IC50 (cell viability) [9]: > 10 µM
- IC50 (cell viability) [10]: > 10 µM
- IC50 (cell viability) [11]: > 10 µM
- IC50 (cell viability) [12]: > 10 µM
- IC50 (cell viability) [13]: > 10 µM
- IC50 (cell viability) [14]: > 10 µM
- IC50 (cell viability) [15]: > 10 µM
- cell viability ([16]; 0.001 µM, co-treatment: AZD3965 100 nM): 101.7 ± 0.96%
- cell viability ([16]; 0.001 µM, co-treatment: DMSO vehicle): 99.8 ± 1.2%
- cell viability ([16]; 0.001 µM, co-treatment: GSK2194069 100 nM): 98.536 ± 0.016%
- cell viability ([16]; 0.001 µM, co-treatment: pictilisib 100 nM): 97.2 ± 3.1%
- cell viability ([16]; 0.01 µM, co-treatment: AZD3965 100 nM): 100.9 ± 0.63%
- cell viability ([16]; 0.01 µM, co-treatment: DMSO vehicle): 100 ± 1.6%
- cell viability ([16]; 0.01 µM, co-treatment: GSK2194069 100 nM): 106 ± 5%
- cell viability ([16]; 0.01 µM, co-treatment: pictilisib 100 nM): 95.5 ± 1%
- cell viability ([16]; 0.1 µM, co-treatment: AZD3965 100 nM): 107 ± 1.1%
- cell viability ([16]; 0.1 µM, co-treatment: DMSO vehicle): 102 ± 4.3%
- cell viability ([16]; 0.1 µM, co-treatment: GSK2194069 100 nM): 105 ± 1.4%
- cell viability ([16]; 0.1 µM, co-treatment: pictilisib 100 nM): 101 ± 2.9%
- cell viability ([16]; 1 µM, co-treatment: AZD3965 100 nM): 98.5 ± 2.6%
- cell viability ([16]; 1 µM, co-treatment: DMSO vehicle): 102 ± 1.6%
- cell viability ([16]; 1 µM, co-treatment: GSK2194069 100 nM): 100.4 ± 0.11%
- cell viability ([16]; 1 µM, co-treatment: pictilisib 100 nM): 102 ± 8.8%
- cell viability ([16]; 10 µM, co-treatment: AZD3965 100 nM): 102 ± 9.5%
- cell viability ([16]; 10 µM, co-treatment: DMSO vehicle): 102 ± 3.6%
- cell viability ([16]; 10 µM, co-treatment: GSK2194069 100 nM): 97.8 ± 4.5%
- cell viability ([16]; 10 µM, co-treatment: pictilisib 100 nM): 104 ± 3%
- cell viability ([17]; 1 nM): 89.6%
- cell viability ([17]; 10 nM): 100%
- cell viability ([17]; 100 nM): 103%
- cell viability ([17]; 1000 nM): 108%
- cell viability ([17]; 10000 nM): 97.3%
- cell viability ([18]; 1 nM): 84.5%
- cell viability ([18]; 10 nM): 140%
- cell viability ([18]; 100 nM): 99.2%
- cell viability ([18]; 1000 nM): 108%
- cell viability ([18]; 10000 nM): 103%
- cell viability ([19]; 1 nM): 96.7%
- cell viability ([19]; 10 nM): 97.6%
- cell viability ([19]; 100 nM): 97.8%
- cell viability ([19]; 1000 nM): 93.7%
- cell viability ([19]; 10000 nM): 107%
- cell viability ([20]; 1 nM): 104%
- cell viability ([20]; 10 nM): 94.3%
- cell viability ([20]; 100 nM): 97.7%
- cell viability ([20]; 1000 nM): 111%
- cell viability ([20]; 10000 nM): 95.3%
- cell viability ([21]; 1 nM): 106%
- cell viability ([21]; 10 nM): 92.6%
- cell viability ([21]; 100 nM): 99.9%
- cell viability ([21]; 1000 nM): 110%
- cell viability ([21]; 10000 nM): 92.4%
- cell viability ([22]; 1 nM): 98.6%
- cell viability ([22]; 10 nM): 87.9%
- cell viability ([22]; 100 nM): 115%
- cell viability ([22]; 1000 nM): 101%
- cell viability ([22]; 10000 nM): 99.8%
- cell viability ([23]; 1 nM): 91.4%
- cell viability ([23]; 10 nM): 114%
- cell viability ([23]; 100 nM): 98.5%
- cell viability ([23]; 1000 nM): 100%
- cell viability ([23]; 10000 nM): 99.8%
- cell viability ([24]; 1 nM): 105%
- cell viability ([24]; 10 nM): 104%
- cell viability ([24]; 100 nM): 99.4%
- cell viability ([24]; 1000 nM): 97.1%
- cell viability ([24]; 10000 nM): 96.4%
- cell viability ([25]; 1 nM): 104%
- cell viability ([25]; 10 nM): 94.6%
- cell viability ([25]; 100 nM): 108%
- cell viability ([25]; 1000 nM): 101%
- cell viability ([25]; 10000 nM): 101%
- cell viability ([26]; 1 nM): 101%
- cell viability ([26]; 10 nM): 109%
- cell viability ([26]; 100 nM): 109%
- cell viability ([26]; 1000 nM): 108%
- cell viability ([26]; 10000 nM): 104%
- cell viability ([27]; 1 nM): 101%
- cell viability ([27]; 10 nM): 97.5%
- cell viability ([27]; 100 nM): 93.8%
- cell viability ([27]; 1000 nM): 93.2%
- cell viability ([27]; 10000 nM): 92%
- area under dose-response curve ([28]; co-treatment: AZD3965 100 nM): < 0.0301
- area under dose-response curve ([28]; co-treatment: DMSO vehicle): < 0.0301
- area under dose-response curve ([28]; co-treatment: GSK2194069 100 nM): < 0.0301
- area under dose-response curve ([28]; co-treatment: pictilisib 100 nM): < 0.0301
